# Experimental data: US11478483B2, “Method of treating hypertension” (Cipla Limited, priority 2017, dated 2022)
# Several values for one entry are separate records, joined by “and”; a condition that tells them apart may be missing. Identical values can stand only once. Counter-ions that a name gives are not always drawn.
# Tests used:
# [1] = after oral administration; cited from earlier work
# [2] = system: rats with monocrotaline induced pulmonary arterial hypertension; assay: Pulmonary arterial hypertension efficacy model: monocrotaline rat, hemodynamic evaluation; type: in vivo, Male Sprague-Dawley rats; settings: for Right Ventricle (RV), Mean / Right Ventricle/Body Weight, Mean / Right Ventricular Pressure, Mean / Right Ventricular Systolic Pressure (RVSP), Mean: group mean; for Right Ventricle (RV), Mean / Right Ventricle/Body Weight, Mean / Right Ventricular Pressure, Mean / Right Ventricular Systolic Pressure (RVSP), Mean / Right Ventricle (RV) / Right Ventricle/Body Weight / Right Ventricular Pressure / Right Ventricular Systolic Pressure (RVSP): MCT 50 mg/kg s.c., Day 28; for Right Ventricle (RV) / Right Ventricle/Body Weight / Right Ventricular Pressure / Right Ventricular Systolic Pressure (RVSP): individual animals
# Method: The studies were conducted for hemodynamic evaluation of quetiapine in anesthetized sprague dawley rats treated with monocrotaline (“MCT”) to induce pulmonary arterial hypertension. Sildenafil was used as an internal control to compare the effects of Quetiapine.
# The effects of Quetiapine were evaluated in rats with monocrotaline induced pulmonary arterial hypertension using sildenafil as standard care treatment. Male Sprague-Dawley rats were orally administered vehicle, Quetiapine (40 mg/kg, divided into a BID regimen given every day for 28 days starting on Day 1), or sildenafil (100 mg/kg, administered once daily) (n=12 in each group). Rats received a single injection of monocrotaline (50 mg/kg, s.c.) on Study Day 1. On the twenty-eighth day following monocrotaline dosing, the rats were anesthetized with ketamine/xylazine for terminal monitoring of pulmonary and systemic arterial pressures along with heart rate.
# Vehicle (0.5% Methylcellulose+0.2% Tween 80 in deionized water, Quetiapine (40 mg/kg dib for 28 days; Sildenafil ([…], administered once daily)
# Male Sprague-Dawley rats in groups I, II, III and IV and V were administered 50 mg/kg of body weight of Monocrotaline in DMSO subcutaneously to induce PAH on day 1. The DMSO group (Group I, negative control) received a single dose of DMSO subcutaneously on day 1. The vehicle group received 5 ml of vehicle every morning. The Quetiapine as well as sildenafil groups were orally administered Quetiapine (40 mg/kg, divided into a BID regimen given every day for 28 days starting on Day 1), or sildenafil (100 mg/kg, administered once daily). On the twenty-eighth day after monocrotaline dosing, the rats were anesthetized with ketamine/xylazine for terminal monitoring of pulmonary and systemic arterial pressures along with heart rate.
# [3] = Quetiapine 40 mg/Kg bid p.o. for 28 days
# [4] = Sildenafil 100 mg/kg p.o. once daily
smiles,measurement,setting,value
OCCOCCN1CCN(C2=Nc3ccccc3Sc3ccccc32)CC1 [Quetiapine fumarate],time to reach peak plasma concentrations,[1],1.5 h
OCCOCCN1CCN(C2=Nc3ccccc3Sc3ccccc32)CC1 [Quetiapine],activity in controlling or reducing PAH compared with Sildenafil,"[2]; MCT rats, Quetiapine 40 mg/kg bid vs Sildenafil 100 mg/kg",comparable among with Sildenafil activity
same,systolic and mean pulmonary arterial pressures compared to the vehicle group,"[2]; after 28 days, Quetiapine 40 mg/kg bid, MCT rats",differences in systolic and mean pulmonary arterial pressures
same,"Right Ventricle (RV), Mean",[2]; [3],0.276 g
same,"Right Ventricle/Body Weight, Mean",[2]; [3],0.0008 g
same,"Right Ventricular Pressure, Mean",[2]; [3],22.414 mmHg
same,"Right Ventricular Systolic Pressure (RVSP), Mean",[2]; [3],47.511 mmHg
same,Right Ventricle (RV),[2]; [3],0.336 g and 0.337 g and 0.312 g and 0.260 g and 0.193 g and 0.353 g and 0.225 g and 0.276 g and 0.190 g
same,Right Ventricle/Body Weight,[2]; [3],0.0010 g (3×) and 0.0007 g and 0.0006 g (3×) and 0.0012 g and 0.0008 g
same,Right Ventricular Pressure,[2]; [3],27.940 mmHg and 21.646 mmHg and 22.967 mmHg and 16.792 mmHg and 19.956 mmHg and 24.109 mmHg and 28.929 mmHg and 18.440 mmHg and 20.951 mmHg
same,Right Ventricular Systolic Pressure (RVSP),[2]; [3],54.140 mmHg and 47.463 mmHg and 43.052 mmHg and 36.213 mmHg and 41.515 mmHg and 68.747 mmHg and 54.503 mmHg and 37.045 mmHg and 44.925 mmHg
CCCc1nn(C)c2c(=O)[nH]c(-c3cc(S(=O)(=O)N4CCN(C)CC4)ccc3OCC)nc12 [Sildenafil],"Right Ventricle (RV), Mean",[2]; [4],0.247 g
same,"Right Ventricle/Body Weight, Mean",[2]; [4],0.0006 g
same,"Right Ventricular Pressure, Mean",[2]; [4],13.929 mmHg
same,"Right Ventricular Systolic Pressure (RVSP), Mean",[2]; [4],29.648 mmHg
same,Right Ventricle (RV),[2]; [4],0.236 g and 0.440 g and 0.228 g and 0.207 g and 0.232 g and 0.308 g and 0.229 g and 0.261 g and 0.083 g
same,Right Ventricle/Body Weight,[2]; [4],0.0007 g (3×) and 0.0009 g and 0.0006 g (4×) and 0.0003 g
same,Right Ventricular Pressure,[2]; [4],16.804 mmHg and 11.481 mmHg and 15.226 mmHg and 11.673 mmHg and 14.427 mmHg and 14.139 mmHg and 16.310 mmHg and 12.947 mmHg and 12.352 mmHg
same,Right Ventricular Systolic Pressure (RVSP),[2]; [4],33.864 mmHg and 23.627 mmHg and 31.322 mmHg and 24.486 mmHg and 29.450 mmHg and 31.316 mmHg and 32.922 mmHg and 34.262 mmHg and 25.579 mmHg
